Measurements: the supplement of paper PMC10307832

Legend:
Experiment in all cases: relative viability (nuclei count vs DMSO), 5 days (fraction); higher = more cells survive
NCI-H2087 = test system: NCI-H2087
Method in brief: (§1)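 A single step with final 0.05% Triton X-100, 1% formaldehyde and 1 ug/ml Hoechst fixed the cells and stained nuclei 5 days after treatment. Lung cancer cell lines in 1536-well plates had been treated by pin tool the day after seeding with one drug alone or a fixed anchor-drug dose plus five library-drug doses (not always all listed) in √10 steps, and nuclei were counted on 4× images. Relative viability is the ratio of nuclei in treated wells to nuclei in vehicle wells, taken as the median of duplicate plates.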

NCI-H23 = test system: NCI-H23
Method in brief: as §1

201T = test system: 201T
Method in brief: as §1

NCI-H1666 = test system: NCI-H1666
Method in brief: as §1

HCC-827 = test system: HCC-827
Method in brief: as §1

NCI-H650 = test system: NCI-H650
Method in brief: as §1

NCI-H2126 = test system: NCI-H2126
Method in brief: as §1

NCI-H2405 = test system: NCI-H2405
Method in brief: as §1

COR-L 105 = test system: COR-L 105
Method in brief: as §1

NCI-H520 = test system: NCI-H520
Method in brief: as §1

HCC-78 = test system: HCC-78
Method in brief: as §1

CC(=O)O[C@@]12CO[C@@H]1C[C@H](O)[C@@]1(C)C(=O)[C@H](O)C3=C(C)[C@@H](OC(=O)[C@H](O)[C@@H](NC(=O)OC(C)(C)C)c4ccccc4)C[C@@](O)([C@@H](OC(=O)c4ccccc4)[C@H]21)C3(C)C [Docetaxel] + CS(=O)(=O)N1CCN(Cc2cc3nc(-c4cccc5[nH]ncc45)nc(N4CCOCC4)c3s2)CC1 [Pictilisib] (partner 1 µM) was tested. Which relative viability (NCI-H2087; first compound 0.000632 µM) did it give?
The relative viability was 0.631.

What about the relative viability (NCI-H2087; first compound 0.002 µM) of the same molecule?
The relative viability was 0.284.

And the relative viability (NCI-H2087; first compound 0.006325 µM)?
The relative viability was 0.34.

And the relative viability (NCI-H2087; first compound 0.02 µM)?
Its relative viability is 0.193.

And the relative viability (NCI-H23; first compound 0.0002 µM)?
The relative viability was 0.499.

And the relative viability (NCI-H23; first compound 0.000632 µM)?
The relative viability was 0.403.

And the relative viability (NCI-H23; first compound 0.002 µM)?
The relative viability was 0.248.

And the relative viability (NCI-H23; first compound 0.006325 µM)?
The relative viability was 0.185.

What about the relative viability (NCI-H23; first compound 0.02 µM) of the same molecule?
Its relative viability is 0.144.

And the relative viability (201T; first compound 0.0002 µM)?
Its relative viability is 0.683.

What about the relative viability (201T; first compound 0.000632 µM) of the same molecule?
The relative viability was 0.672.

And the relative viability (201T; first compound 0.002 µM)?
The relative viability was 0.557.

What about the relative viability (201T; first compound 0.006325 µM) of the same molecule?
Its relative viability is 0.567.

And the relative viability (201T; first compound 0.02 µM)?
Its relative viability is 0.289.

And the relative viability (NCI-H1666; first compound 0.0002 µM)?
The relative viability was 0.4.

What about the relative viability (NCI-H1666; first compound 0.000632 µM) of the same molecule?
Its relative viability is 0.431.

And the relative viability (NCI-H1666; first compound 0.002 µM)?
Its relative viability is 0.273.

What about the relative viability (NCI-H1666; first compound 0.006325 µM) of the same molecule?
Its relative viability is 0.198.

And the relative viability (NCI-H1666; first compound 0.02 µM)?
Its relative viability is 0.169.

What about the relative viability (HCC-827; first compound 0.0002 µM) of the same molecule?
The relative viability was 0.904.

And the relative viability (HCC-827; first compound 0.000632 µM)?
The relative viability was 1.08.

And the relative viability (HCC-827; first compound 0.002 µM)?
The relative viability was 0.787.

What about the relative viability (HCC-827; first compound 0.006325 µM) of the same molecule?
The relative viability was 0.466.

What about the relative viability (HCC-827; first compound 0.02 µM) of the same molecule?
The relative viability was 0.363.

And the relative viability (NCI-H650; first compound 0.0002 µM)?
The relative viability was 0.75.

What about the relative viability (NCI-H650; first compound 0.000632 µM) of the same molecule?
Its relative viability is 0.48.

And the relative viability (NCI-H650; first compound 0.002 µM)?
The relative viability was 0.313.

And the relative viability (NCI-H650; first compound 0.006325 µM)?
The relative viability was 0.274.

And the relative viability (NCI-H650; first compound 0.02 µM)?
The relative viability was 0.207.

What about the relative viability (NCI-H2126; first compound 0.0002 µM) of the same molecule?
The relative viability was 0.518.

And the relative viability (NCI-H2126; first compound 0.000632 µM)?
Its relative viability is 0.541.

What about the relative viability (NCI-H2126; first compound 0.002 µM) of the same molecule?
The relative viability was 0.393.

And the relative viability (NCI-H2126; first compound 0.006325 µM)?
The relative viability was 0.362.

And the relative viability (NCI-H2126; first compound 0.02 µM)?
Its relative viability is 0.257.

And the relative viability (NCI-H2405; first compound 0.0002 µM)?
Its relative viability is 0.393.

What about the relative viability (NCI-H2405; first compound 0.000632 µM) of the same molecule?
Its relative viability is 0.429.

What about the relative viability (NCI-H2405; first compound 0.002 µM) of the same molecule?
Its relative viability is 0.39.

And the relative viability (NCI-H2405; first compound 0.006325 µM)?
The relative viability was 0.272.

What about the relative viability (NCI-H2405; first compound 0.02 µM) of the same molecule?
Its relative viability is 0.182.

And the relative viability (COR-L 105; first compound 0.0002 µM)?
The relative viability was 0.392.

And the relative viability (COR-L 105; first compound 0.000632 µM)?
The relative viability was 0.37.

And the relative viability (COR-L 105; first compound 0.002 µM)?
Its relative viability is 0.278.

What about the relative viability (COR-L 105; first compound 0.006325 µM) of the same molecule?
The relative viability was 0.228.

And the relative viability (COR-L 105; first compound 0.02 µM)?
The relative viability was 0.294.

What about the relative viability (NCI-H520; first compound 0.0002 µM) of the same molecule?
The relative viability was 0.274.

And the relative viability (NCI-H520; first compound 0.000632 µM)?
The relative viability was 0.27.

What about the relative viability (NCI-H520; first compound 0.002 µM) of the same molecule?
Its relative viability is 0.239.

What about the relative viability (NCI-H520; first compound 0.006325 µM) of the same molecule?
Its relative viability is 0.231.

And the relative viability (NCI-H520; first compound 0.02 µM)?
Its relative viability is 0.157.

And the relative viability (HCC-78; first compound 0.0002 µM)?
Its relative viability is 0.204.

And the relative viability (HCC-78; first compound 0.000632 µM)?
Its relative viability is 0.185.

And the relative viability (HCC-78; first compound 0.002 µM)?
Its relative viability is 0.172.

And the relative viability (HCC-78; first compound 0.006325 µM)?
The relative viability was 0.166.

And the relative viability (HCC-78; first compound 0.02 µM)?
The relative viability was 0.204.
